Source: ChEMBL document CHEMBL3576804, “Novel Potent Orthosteric Antagonist of ASIC1a Prevents NMDAR-Dependent LTP Induction” (J Med Chem, 2015)
Active and inactive are the calls of the source. The calls are words filed in the database; no cut-off is given here.

Tests used:
[1] = target: T1, Acid-sensing ion channel 1 (Homo sapiens) (UniProt P78348); assay: Inhibition of human ASIC1a endogenously expressed in HEK293 cells clamped at -100 mV gated ionic current at 10 uM at pH 5.0 by standard whole cell patch clamp assay; type: cell-based
T1 sequence (whole entry): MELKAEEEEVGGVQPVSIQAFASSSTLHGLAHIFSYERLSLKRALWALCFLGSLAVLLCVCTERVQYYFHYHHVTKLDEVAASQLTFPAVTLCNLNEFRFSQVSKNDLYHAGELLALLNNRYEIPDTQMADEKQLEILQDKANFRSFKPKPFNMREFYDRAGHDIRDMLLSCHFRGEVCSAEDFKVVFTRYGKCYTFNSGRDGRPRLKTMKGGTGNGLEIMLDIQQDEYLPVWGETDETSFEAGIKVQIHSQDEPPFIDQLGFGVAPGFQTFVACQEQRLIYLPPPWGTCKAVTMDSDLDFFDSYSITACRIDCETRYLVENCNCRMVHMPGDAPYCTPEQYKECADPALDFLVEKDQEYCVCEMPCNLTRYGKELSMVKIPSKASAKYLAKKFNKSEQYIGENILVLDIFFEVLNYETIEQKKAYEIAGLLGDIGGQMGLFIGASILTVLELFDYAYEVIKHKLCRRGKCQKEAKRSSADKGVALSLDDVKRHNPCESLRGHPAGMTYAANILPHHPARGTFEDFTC

[2] = target: T1, Acid-sensing ion channel 1 (Homo sapiens); assay: Inhibition of human ASIC1a endogenously expressed in HEK293 cells clamped at -100 mV gated ionic current at 10 uM at pH 6.7 by standard whole cell patch clamp assay; type: cell-based
[3] = target: T1, Acid-sensing ion channel 1 (Homo sapiens); assay: Inhibition of human ASIC1a endogenously expressed in HEK293 cells clamped at -100 mV gated ionic current at 100 uM at pH 6.7 by standard whole cell patch clamp assay; type: cell-based
[4] = target: T1, Acid-sensing ion channel 1 (Homo sapiens); assay: Inhibition of human ASIC1a endogenously expressed in HEK293 cells clamped at -100 mV gated ionic current at 100 uM at pH 5.0 by standard whole cell patch clamp assay; type: cell-based
Hippocampus [5] = assay: Effect on amplitude of field excitatory postsynaptic potential in Wistar rat hippocampal CA3-CA1 region at 100 nM by patch clamp method; type: functional
[6] = target: T2, Acid-sensing ion channel 1 (Rattus norvegicus) (UniProt P55926); assay: Inhibition of ASIC1a in Wistar rat pyramidal hippocampal neurons assessed as reduction in main ionic currents at 1 uM by patch clamp assay
T2 sequence (whole entry): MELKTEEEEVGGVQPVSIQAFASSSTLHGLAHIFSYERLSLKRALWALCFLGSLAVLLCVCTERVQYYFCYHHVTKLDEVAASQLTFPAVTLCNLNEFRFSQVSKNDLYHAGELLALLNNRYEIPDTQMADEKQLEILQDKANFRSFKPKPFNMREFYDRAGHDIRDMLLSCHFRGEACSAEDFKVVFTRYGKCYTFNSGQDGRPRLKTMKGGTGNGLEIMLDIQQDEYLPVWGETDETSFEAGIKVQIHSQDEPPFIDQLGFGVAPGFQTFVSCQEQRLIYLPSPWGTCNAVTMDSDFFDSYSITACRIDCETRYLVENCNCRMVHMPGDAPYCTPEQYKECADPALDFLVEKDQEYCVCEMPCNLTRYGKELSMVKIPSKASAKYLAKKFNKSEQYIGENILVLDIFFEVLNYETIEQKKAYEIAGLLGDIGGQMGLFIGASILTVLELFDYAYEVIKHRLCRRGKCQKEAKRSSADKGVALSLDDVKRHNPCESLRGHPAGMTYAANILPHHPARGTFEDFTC

Hippocampus [7] = assay: Increase in short-term potentiation in Wistar rat hippocampal CA3-CA1 region at 100 nM by patch clamp method (reference value: 225.9 +/- 12.4%); type: functional
[8] = target: T1, Acid-sensing ion channel 1 (Homo sapiens); assay: Orthosteric non-competitive inhibition of human ASIC1a endogenously expressed in HEK293 cells clamped at -100 mV gated ionic current assessed as maximal evoked response for steady-state activation at 10 nM by standard whole cell patch clamp assay relative to untreated control; type: cell-based; set-up: scale not given: the % may be the effect or the level left
[9] = target: T1, Acid-sensing ion channel 1 (Homo sapiens); assay: Reversible inhibition of human ASIC1a endogenously expressed in HEK293 cells clamped at -100 mV gated ionic current at pH 5.0 measured after drug wash out by standard whole cell patch clamp assay; type: cell-based
[10] = target: T1, Acid-sensing ion channel 1 (Homo sapiens); assay: Orthosteric non-competitive inhibition of human ASIC1a endogenously expressed in HEK293 cells clamped at -100 mV gated ionic current assessed as maximal evoked response for steady-state activation at 1 uM by standard whole cell patch clamp assay relative to untreated control; type: cell-based; set-up: scale not given: the % may be the effect or the level left
Hippocampus [11] = assay: Inhibition of amplitude of inhibitory postsynaptic currents in Wistar rat hippocampal CA3-CA1 region at 100 nM by patch clamp method; type: functional, tissue-based
[12] = target: T1, Acid-sensing ion channel 1 (Homo sapiens); assay: Inhibition of human ASIC1a endogenously expressed in HEK293 cells clamped at -100 mV gated ionic current at 100 nM at pH 5.0 by standard whole cell patch clamp assay; type: cell-based
[13] = target: T1, Acid-sensing ion channel 1 (Homo sapiens); assay: Inhibition of human ASIC1a endogenously expressed in HEK293 cells clamped at -100 mV gated ionic current at 100 nM by standard whole cell patch clamp assay; type: cell-based
[14] = target: T2, Acid-sensing ion channel 1 (Rattus norvegicus); assay: Inhibition of ASIC1a in Wistar rat hippocampal neurons assessed as ASIC1a-like currents level at 10 uM by patch clamp assay; set-up: scale not given: the % may be the effect or the level left
[15] = target: T3, Acid-sensing ion channel 2 (Rattus norvegicus) (UniProt Q62962); assay: Inhibition of ASIC2 in Wistar rat hippocampal neurons assessed as slow ASIC2-like currents level at 10 uM by patch clamp assay; set-up: scale not given: the % may be the effect or the level left
T3 sequence (whole entry): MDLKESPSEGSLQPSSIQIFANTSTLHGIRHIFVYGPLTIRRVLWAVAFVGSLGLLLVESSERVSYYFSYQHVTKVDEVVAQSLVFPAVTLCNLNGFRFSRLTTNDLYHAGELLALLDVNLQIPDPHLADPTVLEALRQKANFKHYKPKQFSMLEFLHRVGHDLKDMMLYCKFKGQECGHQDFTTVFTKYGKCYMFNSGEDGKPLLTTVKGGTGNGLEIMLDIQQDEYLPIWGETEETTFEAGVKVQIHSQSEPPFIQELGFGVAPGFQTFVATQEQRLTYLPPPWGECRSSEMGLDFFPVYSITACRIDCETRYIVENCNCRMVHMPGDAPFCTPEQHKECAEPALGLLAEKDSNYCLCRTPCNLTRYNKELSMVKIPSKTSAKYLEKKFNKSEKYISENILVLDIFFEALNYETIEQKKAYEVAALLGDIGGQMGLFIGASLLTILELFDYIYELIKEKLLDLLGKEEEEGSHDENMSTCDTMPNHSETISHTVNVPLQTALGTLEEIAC

[16] = target: T4, Acid-sensing ion channel 1 (Homo sapiens, UniProt P78348); assay: Inhibition of human ASIC1a endogenously expressed in HEK293 cells clamped at -100 mV gated ionic current at pH 6.7 by standard whole cell patch clamp assay; type: cell-based
T4 sequence (P78348 whole entry): T1 sequence (whole entry)

[17] = target: T4, Acid-sensing ion channel 1; assay: Inhibition of human ASIC1a endogenously expressed in HEK293 cells clamped at -100 mV gated ionic current at pH 5.0 by standard whole cell patch clamp assay; type: cell-based
[18] = target: T4, Acid-sensing ion channel 1; assay: Orthosteric non-competitive inhibition of human ASIC1a endogenously expressed in HEK293 cells clamped at -100 mV gated ionic current assessed as EC50 for steady state activation at 10 nM by standard whole cell patch clamp assay (reference value: 6.57 +/- 0.01 pH); type: cell-based
[19] = target: T2, Acid-sensing ion channel 1 (Rattus norvegicus); assay: Inhibition of ASIC1a in Wistar rat pyramidal hippocampal neurons assessed as ASIC1a-like currents level at 100 nM by patch clamp assay; set-up: scale not given: the % may be the effect or the level left
Hippocampus [20] = assay: Inhibition of amplitude of excitatory postsynaptic currents in Wistar rat hippocampal CA3-CA1 region at 100 nM by patch clamp method; type: functional, tissue-based
[21] = target: T4, Acid-sensing ion channel 1; assay: Orthosteric non-competitive inhibition of human ASIC1a endogenously expressed in HEK293 cells clamped at -100 mV gated ionic current assessed as EC50 for steady state activation at 1 uM by standard whole cell patch clamp assay (reference value: 6.57 +/- 0.01 pH); type: cell-based
Hippocampus [22] = assay: Blocking of short-term potentiation in Wistar rat hippocampal CA3-CA1 regions at 100 nM by patch clamp method (Rvb =142.9 +/- 25%); type: functional
Hippocampus [23] = assay: Effect on NMDAR-independent long-term potentiation in Wistar rat hippocampal MF-CA3 region at 100 nM in presence of NMDA receptor blocker MK801 by patch clamp method (reference value: 118.3 +/- 9.6%); type: functional
[24] = target: T1, Acid-sensing ion channel 1 (Homo sapiens); assay: Reversible inhibition of human ASIC1a endogenously expressed in HEK293 cells clamped at -100 mV gated ionic current at pH 6.7 measured after drug wash out by standard whole cell patch clamp assay; type: cell-based
[25] = target: T4, Acid-sensing ion channel 1; assay: Orthosteric non-competitive inhibition of human ASIC1a endogenously expressed in HEK293 cells clamped at -100 mV gated ionic current assessed as EC50 for steady state activation at 100 nM by standard whole cell patch clamp assay (reference value: 6.57 +/- 0.01 pH); type: cell-based
[26] = target: T1, Acid-sensing ion channel 1 (Homo sapiens); assay: Inhibition of human ASIC1a endogenously expressed in HEK293 cells clamped at -100 mV gated ionic current at 100 nM at pH 6.7 by standard whole cell patch clamp assay; type: cell-based
[27] = target: T1, Acid-sensing ion channel 1 (Homo sapiens); assay: Inhibition of human ASIC1a endogenously expressed in HEK293 cells clamped at -100 mV gated ionic current at 100 nM in presence of cellular membrane depolarization by standard whole cell patch clamp assay; type: cell-based
[28] = target: T1, Acid-sensing ion channel 1 (Homo sapiens); assay: Inhibition of human ASIC1a endogenously expressed in HEK293 cells clamped at -20 mV gated ionic current at 100 nM by standard whole cell patch clamp assay; type: cell-based
Hippocampus [29] = assay: Effect on slope of field excitatory postsynaptic potential in Wistar rat hippocampal CA3-CA1 region at 100 nM by patch clamp method; type: functional
[30] = target: T1, Acid-sensing ion channel 1 (Homo sapiens); assay: Orthosteric non-competitive inhibition of human ASIC1a endogenously expressed in HEK293 cells clamped at -100 mV gated ionic current assessed as maximal evoked response for steady-state activation at 100 nM by standard whole cell patch clamp assay relative to untreated control; type: cell-based; set-up: scale not given: the % may be the effect or the level left
Hippocampus [31] = assay: Increase in slope of field excitatory postsynaptic potential in Wistar rat hippocampal CA3-CA1 region at 100 nM by patch clamp method; type: functional, tissue-based
[32] = target: T5, Acid-sensing ion channel 3 (Rattus norvegicus) (UniProt O35240); assay: Inhibition of ASIC3 in Wistar rat hippocampal neurons assessed as fast ASIC3-like currents level at 10 uM by patch clamp assay; set-up: scale not given: the % may be the effect or the level left
T5 sequence (whole entry): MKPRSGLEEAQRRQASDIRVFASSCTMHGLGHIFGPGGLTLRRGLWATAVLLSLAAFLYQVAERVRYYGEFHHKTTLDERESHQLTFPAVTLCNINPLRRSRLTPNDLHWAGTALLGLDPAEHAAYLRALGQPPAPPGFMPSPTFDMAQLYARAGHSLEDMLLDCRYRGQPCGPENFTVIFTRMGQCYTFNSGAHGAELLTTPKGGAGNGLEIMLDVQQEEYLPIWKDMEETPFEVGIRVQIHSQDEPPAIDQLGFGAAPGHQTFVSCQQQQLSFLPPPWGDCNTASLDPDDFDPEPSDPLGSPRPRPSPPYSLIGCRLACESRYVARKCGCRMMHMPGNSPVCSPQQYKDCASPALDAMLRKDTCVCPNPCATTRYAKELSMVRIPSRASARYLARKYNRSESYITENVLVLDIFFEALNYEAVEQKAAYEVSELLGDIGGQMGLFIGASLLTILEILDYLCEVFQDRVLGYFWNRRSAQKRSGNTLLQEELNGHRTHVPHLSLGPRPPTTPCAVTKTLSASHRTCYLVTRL

Hippocampus [33] = assay: Increase in amplitude of field excitatory postsynaptic potential in Wistar rat hippocampal CA3-CA1 region at 100 nM by patch clamp method; type: functional, tissue-based

## CCN(CC)CCN(CC)c1ccc2cc(C(=N)N)c(=O)oc2c1
[1]
  inhibition: 101%
[2]
  inhibition: 77.5%
[3]
  inhibition: 53.2%
[4]
  inhibition: 78.7%

## CCN(CC)CCN(Cc1ccc(Cl)cc1)c1ccc2cc(C(=N)N)c(=O)oc2c1
Hippocampus [5]
  Activity: 104.6%
[6]
  inhibition: inactive
Hippocampus [7]
  Activity: 193.2%
[8]
  Activity: 93.2%
[9]
  inhibition: Active
[10]
  Activity: 72.2%
Hippocampus [11]
  inhibition: inactive
[12]
  inhibition: 98.6%
[13]
  inhibition: 42.1%
[1]
  inhibition: 44.8%
[2]
  inhibition: 2.5%
[14]
  Activity: 48.3%
[15]
  Activity: 99.3%
[16]
  IC50: 0.0274 µM
[17]
  IC50: 7.34 µM
[18]
  EC50: 6.5 pH
[19]
  Activity: 9.39%
Hippocampus [20]
  inhibition: inactive
[21]
  EC50: 6.18 pH
Hippocampus [22]
  Activity: 106.2%
Hippocampus [23]
  Activity: 117%
[24]
  inhibition: Active
[25]
  EC50: 6.4 pH
[26]
  inhibition: 23.7%
[27]
  inhibition: Active
[28]
  inhibition: 45.8%
Hippocampus [29]
  Activity: 103.4%
[30]
  Activity: 83.9%
Hippocampus [31]
  Activity: Active
[32]
  Activity: 45.2%
Hippocampus [33]
  Activity: Active

## CN(Cc1ccccc1)c1ccc2cc(C(=N)N)c(=O)oc2c1
[1]
  inhibition: 79.2%
[2]
  inhibition: 42.9%
[3]
  inhibition: 22.3%
[4]
  inhibition: 36.6%
